Results as given in US8603482B2, “Compositions and methods for cancer immunotherapy” (Eisai R&D Management Co., Ltd., priority 2005, dated 2013).
Values joined by “and” are separate entries in the source; they are usually repeats but may differ in a detail not shown here. Equal entries are not always repeated.

B1: GM-CSF: murine GM-CSF, a cytokine used in cancer vaccine trials to boost immune response (protein, UniProt P01587 18-141, looked up)
Granulocyte-macrophage …: APTRSPITVTRPWKHVEAIKEALNLLDDMPVTLNEEVEVVSNEFSFKKLTCVQTRLKIFEQGLRGNFTKLKGALNMTASYYQTYCPPTPETDCETQVTTYADFIDSLKTFLTDIPFECKKPGQK

How the values were obtained:
[1] = test system: B16F10 murine melanoma cells; assay: Survival of B16F10 melanoma-bearing mice, i.p. E6020 with s.c. GM-CSF-secreting tumor cell vaccine; type: in vivo, B6 mice (C57BL/6 mice); conditions: i.p. E6020 plus s.c. irradiated B16-GM-CSF cells at separate sites, three days after s.c. B16F10 inoculation; FIG. 1
Excerpt: To determine the effect of E6020, a sodium salt of ER 804057, when administered intraperitoneally with a cancer vaccine, e.g., granulocyte-macrophage colony stimulating factor (GM-CSF) secreting tumor cells, a mouse model using melanoma cells was used.
E6020 is a TLR4 (Toll-like receptor-4) agonist. B6 mice (C57BL/6 mice) were engrafted subcutaneously with 1×10^6 syngeneic B16F10 murine melanoma cells. Three days after tumor cell inoculation, the mice were either (1) vaccinated subcutaneously (s.c.) with 1×10^6 B16F10 tumor cells that were genetically modified to stably express and secrete murine GM-CSF (B16-GM-CSF cells); (2) vaccinated intraperitoneally (i.p.) with E6020; or (3) were treated with a combination of s.c. GM-CSF cell vaccination and i.p. E6020 (the GM-CSF cell vaccination and E6020 vaccination were administered at separate sites in the mice). In these experiments, the GM-CSF cells were inactivated by gamma-irradiation prior to inoculation. Survival of the animals was monitored.

[2] = test system: B16F10 murine melanoma cells; assay: Survival of B16F10 melanoma-bearing mice, intratumoral GM-CSF cells with E6020; type: in vivo, B6 mice; conditions: intratumoral GM-CSF cells in combination with E6020 (about 3-10 μg) when tumors palpable; versus untreated or GM-CSF cells alone; FIG. 2
Method: The effect of E6020 on treatment of B6 mice that were engrafted subcutaneously with 1×10^6 syngeneic B16F10 murine melanoma cells was examined. When tumors became palpable, the mice were injected intratumorally with GM-CSF cells alone, or in combination with E6020 (about 3-10 μg). Survival of the animals was monitored.

MUC1 IL-10−/− mice = assay: MUC-1 vaccine with E6020 adjuvant in mice that develop IBD followed by colon adenocarcinoma; type: in vivo, mouse
Method: To test the effects of a MUC-1 vaccine with E6020 adjuvant for treating inflammatory bowel disease (IBD) and subsequent development of colon adenocarcinoma, an engineered mouse strain that lacks the IL-10 gene and expresses transgenic human MUC1 was used. Such mice spontaneously develop intestinal inflammation resembling IBD followed by colon adenocarcinoma. […] 4, 2006.
In these experiments, mice were immunized intranasally with […] of Tn MUC100mer ([…])×5, SEQ ID NO:1) and […] of E6020. Animals were vaccinated at about 4.5 weeks and boosted at about 6.5 weeks and 9 weeks.

EGFRvIII peptide = assay: EGFRvIII peptide-specific antibody titers by ELISA after immunization with peptide-KLH conjugate; type: in vivo, C57/BL6J mice; conditions: for Geometric mean titer: IgG1 / Geometric mean titer: IgG2a: antigen administered with the named adjuvant, 8 animals; for IgG1 antibody titer to EGFRvIII peptide, individual animals / IgG2a antibody titer to EGFRvIII peptide, individual animals: s.c. peptide-KLH conjugate 25 μg with E6020 3 μg and/or GM-CSF 5 μg, three immunizations at three-week intervals, titer = last serum dilution with signal 0.25 OD units above background
Method: To determine whether an adjuvant can enhance the effect of an oncology antigen (i.e., an antigen that can be used to vaccinate an animal against a cancer), C57/BL6J mice were immunized subcutaneously with a tumor-associated peptide, LEEKKGNYVVTDHC (SEQ ID NO: 2) (derived from a mutant form of EGFR, EGFRvIII) conjugated to the protein carrier keyhole limpet hemocyanin (KLH), with or without E6020 or murine GM-CSF, a cytokine used in cancer vaccine trials to boost immune response. E6020 was dosed at 3 μg, GM-CSF at 5 μg and the peptide-KLH conjugate at 25 μg per dose. Mice were immunized three times at intervals of three weeks. Serum was prepared from mice two weeks after each immunization and tested for EGFRvIII peptide-specific antibodies using ELISA on plates coated with EGFRvIII peptide conjugated to bovine serum albumin. The results in Table 2 are presented as titers from individual animals. The titer is defined as the last serum dilution at which a signal at 0.25 OD units above background was observed.

[3] = addition of E6020 to the MUC-1 vaccine

| Molecule | therapeutic efficacy (survival of tumor-bearing mice) [1] | survival of tumor-bearing mice [2] | appearance of histologically detected tumors (MUC1 IL-10−/− mice; [3]) | progression to rectal prolapse associated with IBD (MUC1 IL-10−/− mice; [3]) | Colon tumors (MUC1 IL-10−/− mice; mice with colon tumors / mice treated, MUC1 IL-10−/− mice) | Geometric mean titer: IgG1 (EGFRvIII peptide) | Geometric mean titer: IgG2a (EGFRvIII peptide) | IgG1 antibody titer to EGFRvIII peptide, individual animals (EGFRvIII peptide) | IgG2a antibody titer to EGFRvIII peptide, individual animals (EGFRvIII peptide) | effect on antigen-specific IgG2a titers (in words) (EGFRvIII peptide; vaccination with EGFRvIII peptide-KLH) |
| --- | --- | --- | --- | --- | --- | --- | --- | --- | --- | --- |
| CCCCCCCCCCCC(=O)CC(=O)N[C@H](COCC[C@@H](CCCCCCC)OC(=O)CCCCCCCCCCC)COP(=O)(O)OCCNC(=O)NCCOP(=O)(O)OC[C@@H](COCC[C@@H](CCCCCCC)OC(=O)CCCCCCCCCCC)NC(=O)CC(=O)CCCCCCCCCCC [E6020] | enhanced the therapeutic efficacy of the GM-CSF cells | increased survival | suppresses the appearance of histologically detected tumors | slow the progression to rectal prolapse associated with IBD | 3/3 | 20182 | 10091 | 24000 (6×) and 48000 and 3000 | 12000 (3×) and 24000 and 48000 and 1500 and 6000 (2×) | enhanced the mean titer of antigen-specific IgG2a |
| B1 |  |  |  |  |  | 24000 | 3568 | 24000 (2×) and 48000 (3×) and 12000 (3×) | 3000 (2×) and 6000 (3×) and 24000 and 750 (2×) |  |
